{
  "source": "patent US20230061858A1",
  "about": "“TREATMENT WITH SITE SPECIFIC HER2 ANTIBODY-DRUG CONJUGATES” (Pfizer Inc., priority 2019, published 2023)",
  "assay": "Phase 1 pharmacokinetic assessment, Cycle 1 serum concentrations",
  "format": "in vivo, human",
  "note": "Where a SMILES comes first, the peptide text is derived from it. [ ]: non-standard residue; d: D form. The star is where a group is joined. Dolaproine = CO[C@@H]([C@@H]1CCCN1)[C@@H](C)C(=O)O; Dil = CC[C@H](C)[C@H](NC)[C@@H](CC(=O)O)OC; Doe = c1ccc(C[C@H](N*)c2nccs2)cc1; Aib = CC(C)(N)C(=O)O",
  "protocol": "Pharmacokinetic assessments included quantifying the serum concentrations of T(kK183C+K290C)-vc0101 ADC (measured as conjugated payload), total antibody, and unconjugated payload using validated bioanalytical assays on blood samples collected before treatment and during the study. Specifically, total antibody concentrations were measured using ELISA method, T(kK183C+K290C)-vc0101 ADC concentrations were measured as conjugated payload using a hybrid LC-MS/MS method, and unconjugated payload concentrations will be measured using an LC-MS/MS method. For preliminary PK assessment, mean serum concentration-time profiles of T(kK183C+K290C)-vc0101 ADC were generated for each dose cohort; Noncompartmental PK parameters were estimated from Cycle 1 concentration-time data using nominal sampling time. For T(kK183C+K290C)-vc0101 ADC and total antibody, PK parameters including the maximum plasma concentration (Cmax), time to maximum plasma concentration (Tmax), and area under the plasma concentration versus time curve (AUCinf, AUCτ), clearance (CL), volume of distribution at steady state (Vss), terminal half-life (t1/2), and accumulation ratio (Rac) were calculated. For unconjugated payload, PK parameters including Cmax, Tmax, AUCinf, AUCτ, t1/2, and Rac, were calculated.",
  "data": [
    {"smiles": "CC[C@H](C)[C@@H]([C@@H](CC(=O)N1CCC[C@H]1[C@H](OC)[C@@H](C)C(=O)N[C@@H](Cc1ccccc1)c1nccs1)OC)N(C)C(=O)[C@@H](NC(=O)C(C)(C)N)C(C)C", "note": "[unconjugated payload, 2-methylalanyl-N-[(3R,4S,5S)-3-methoxy-1-{(2S)-2-[(1R,2R)-1-methoxy-2-methyl-3-oxo-3-{[(1S)-2-phenyl-1-(1,3-thiazol-2-yl)ethyl]amino}propyl]pyrrolidin-1-yl}-5-methyl-1-oxoheptan-4-yl]-N-methyl-L-valinamide] (H-[Aib]V[Dil][Dolaproine]-Doe)", "values": [
      {"measurement": "exposure following IV administration of PF-06804103", "setting": "0.15-5.0 mg/kg, Cycle 1", "result": "Dose-dependent increases"},
      {"measurement": "Serum concentrations compared with ADC", "setting": "Cycle 1, after IV PF-06804103", "result": "substantially lower than those of ADC"}
    ]}
  ]
}
